# According to patent publication US20230373985A1 (Origenis Gmbh, priority 2020, published 2023):
# Tests used:
# [1] = biological target: T1, G2019S human LRRK2, catalytic site (Homo sapiens, UniProt Q5S007, G2019S); test: TR-FRET LanthaScreen Eu Kinase Binding Assay, LRRK2 G2019S; conditions: LRRK2(G2019); one range stated for wt and G2019; read-out: IC50, Activity Toward LRRK2(G2019)
# T1 construct: G2019S human LRRK2, catalytic site; purchased ThermoFisher
# Summary of the method: (§1)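 Competitive tracer-displacement TR-FRET, 1 h at room temperature, read as emission ratio. LRRK2 (wt or G2019S catalytic domain) at 5 nM with 2 nM Eu-anti-GST and 10 nM Tracer 236; full-length NUAK1 at 8 nM with 2 nM Eu-anti-His and 5 nM Tracer 236, all final in Kinase Buffer A.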
# [2] = biological target: T2, wt human TYK2, catalytic site (Homo sapiens, UniProt P29597); test: HTRF KinEASE assay, TYK2; format: biochemical; conditions: 1 μM ATP; read-out: IC50, Activity Toward TYK2
# T2 construct: wt human TYK2, catalytic site; purchased SignalChem
# T2 sequence (P29597 897-1176 limits assumed): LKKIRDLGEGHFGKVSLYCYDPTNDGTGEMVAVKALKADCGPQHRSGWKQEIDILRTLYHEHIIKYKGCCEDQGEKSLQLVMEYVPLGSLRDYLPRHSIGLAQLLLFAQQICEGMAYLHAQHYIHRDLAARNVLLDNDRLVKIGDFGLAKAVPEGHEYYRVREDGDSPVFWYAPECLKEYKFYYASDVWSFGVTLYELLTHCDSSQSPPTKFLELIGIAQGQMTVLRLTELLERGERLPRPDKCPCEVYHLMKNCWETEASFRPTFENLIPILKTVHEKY
# Summary of the method: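 HTRF KinEASE-TK readout with 1 μM biotinylated TK substrate in 1× kinase buffer, ≥30 min at room temperature, then antibody/streptavidin-XL665 detection for 60 min. TYK2 at 2 nM with 1 μM ATP; JAK2 at 1 nM with 100 μM ATP. Analysis uses emission ratios.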
# [3] = biological target: T3, wt human JAK1, catalytic site (Homo sapiens, UniProt P23458); test: HTRF KinEASE assay, JAK1; format: biochemical; conditions: 2.5 μM ATP; read-out: IC50, Activity Toward JAK1
# T3 construct: wt human JAK1, catalytic site; purchased ThermoFisher
# T3 sequence (P23458 875-1153 limits assumed): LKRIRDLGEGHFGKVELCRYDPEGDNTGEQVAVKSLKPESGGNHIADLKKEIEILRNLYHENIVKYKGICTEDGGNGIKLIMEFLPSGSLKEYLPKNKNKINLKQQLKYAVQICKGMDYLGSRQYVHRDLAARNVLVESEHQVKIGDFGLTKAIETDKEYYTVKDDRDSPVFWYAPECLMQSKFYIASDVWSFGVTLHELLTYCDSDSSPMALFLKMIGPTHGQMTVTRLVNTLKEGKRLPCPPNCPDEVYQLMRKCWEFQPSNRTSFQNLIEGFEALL
# Summary of the method: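 Two-step HTRF KinEASE assay: compound, kinase/biotinylated TK substrate and ATP were incubated at least 30 min at room temperature. Antibody plus streptavidin-XL665 was then added and plates were read after 60 min. Inhibition was derived from emission ratios according to the kit protocol.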
# [4] = biological target: T4, wt human JAK2, catalytic site (Homo sapiens, UniProt O60674); test: HTRF KinEASE assay, JAK2; format: biochemical; conditions: assay format not given (Z'-LYTE or HTRF KinEASE); read-out: IC50, Activity Toward JAK2
# T4 construct: wt human JAK2, catalytic site; purchased SignalChem
# T4 sequence (O60674 849-1124 limits assumed): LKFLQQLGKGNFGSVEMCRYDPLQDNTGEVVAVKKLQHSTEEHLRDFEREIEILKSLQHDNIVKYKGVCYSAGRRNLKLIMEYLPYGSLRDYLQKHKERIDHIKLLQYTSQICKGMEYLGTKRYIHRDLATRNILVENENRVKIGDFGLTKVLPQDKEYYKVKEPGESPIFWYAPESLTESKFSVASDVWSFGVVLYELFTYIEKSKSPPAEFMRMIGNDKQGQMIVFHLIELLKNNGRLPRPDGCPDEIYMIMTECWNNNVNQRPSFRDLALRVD
# Experimental: Basic protocol for HTRF KinEASE assay (Cisbio/FRA) inhibitor studies involved two steps: • Enzymatic step: Addition of 4 μL of test compound in corresponding DMSO dilutions, 4 μL of kinase/substrate mixture, 2 μL of ATP into 384 well small volume plates. Incubation for at least 30 minutes at room temperature. • Detection step: Addition of 5 μL antibody and 5 μL streptavidin-XL665, read plate after 60 minutes. Data analysis of emission ratios according KinEASE assay protocol.
# (§2) Kinase and assay components were adjusted to final concentrations according to kit protocol. For TYK2: 2 nM wt human TYK2, catalytic site (SignalChem/CAN), 1 μM HTRF KinEASE-TK Substrate-biotin, 1 μM ATP in 1× Kinase Buffer. For JAK1: 4 nM wt human JAK1, catalytic site (ThermoFisher/USA), 1 μM HTRF KinEASE-TK Substrate-biotin, 2.5 μM ATP in 1× Kinase Buffer. For JAK2: 1 nM wt human JAK2, catalytic site (SignalChem/CAN), 1 μM HTRF KinEASE-TK Substrate-biotin, 100 μM ATP in 1× Kinase Buffer.
# as §2
# [5] = biological target: T5, wt human NUAK1, full length (Homo sapiens, UniProt O60285); test: TR-FRET LanthaScreen Eu Kinase Binding Assay, NUAK1; conditions: read-out: IC50, Activity Toward NUAK1
# T5 construct: 8 nM wt human NUAK1, full length (ThermoFisher/USA); purchased ThermoFisher
# T5 sequence (O60285 1-661): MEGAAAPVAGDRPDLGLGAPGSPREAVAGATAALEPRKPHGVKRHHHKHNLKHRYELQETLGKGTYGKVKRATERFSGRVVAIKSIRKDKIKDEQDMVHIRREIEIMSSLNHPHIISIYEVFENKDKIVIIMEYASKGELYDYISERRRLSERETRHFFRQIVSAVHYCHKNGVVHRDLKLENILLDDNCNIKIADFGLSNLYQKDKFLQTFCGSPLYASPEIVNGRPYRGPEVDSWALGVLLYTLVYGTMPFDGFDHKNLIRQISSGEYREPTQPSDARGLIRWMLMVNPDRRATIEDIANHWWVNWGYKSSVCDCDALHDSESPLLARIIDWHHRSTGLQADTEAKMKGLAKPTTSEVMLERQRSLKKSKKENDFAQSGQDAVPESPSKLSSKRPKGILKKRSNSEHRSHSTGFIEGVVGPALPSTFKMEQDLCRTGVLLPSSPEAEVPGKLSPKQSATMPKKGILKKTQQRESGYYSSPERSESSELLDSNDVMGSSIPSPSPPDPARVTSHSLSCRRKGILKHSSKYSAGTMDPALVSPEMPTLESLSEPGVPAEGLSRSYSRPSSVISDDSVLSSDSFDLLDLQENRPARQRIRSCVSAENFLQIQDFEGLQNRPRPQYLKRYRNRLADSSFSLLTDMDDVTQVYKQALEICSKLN
# Summary of the method: as §1
# [6] = biological target: T6, wt human LRRK2, catalytic site (Homo sapiens, UniProt Q5S007); test: TR-FRET LanthaScreen Eu Kinase Binding Assay, LRRK2 wt; conditions: one range stated for wt and G2019, read-out: IC50, Activity Toward LRRK2(Wt)
# T6 construct: 5 nM wt human LRRK2, catalytic site; purchased ThermoFisher
# T6 sequence (Q5S007 970-2527 limits assumed): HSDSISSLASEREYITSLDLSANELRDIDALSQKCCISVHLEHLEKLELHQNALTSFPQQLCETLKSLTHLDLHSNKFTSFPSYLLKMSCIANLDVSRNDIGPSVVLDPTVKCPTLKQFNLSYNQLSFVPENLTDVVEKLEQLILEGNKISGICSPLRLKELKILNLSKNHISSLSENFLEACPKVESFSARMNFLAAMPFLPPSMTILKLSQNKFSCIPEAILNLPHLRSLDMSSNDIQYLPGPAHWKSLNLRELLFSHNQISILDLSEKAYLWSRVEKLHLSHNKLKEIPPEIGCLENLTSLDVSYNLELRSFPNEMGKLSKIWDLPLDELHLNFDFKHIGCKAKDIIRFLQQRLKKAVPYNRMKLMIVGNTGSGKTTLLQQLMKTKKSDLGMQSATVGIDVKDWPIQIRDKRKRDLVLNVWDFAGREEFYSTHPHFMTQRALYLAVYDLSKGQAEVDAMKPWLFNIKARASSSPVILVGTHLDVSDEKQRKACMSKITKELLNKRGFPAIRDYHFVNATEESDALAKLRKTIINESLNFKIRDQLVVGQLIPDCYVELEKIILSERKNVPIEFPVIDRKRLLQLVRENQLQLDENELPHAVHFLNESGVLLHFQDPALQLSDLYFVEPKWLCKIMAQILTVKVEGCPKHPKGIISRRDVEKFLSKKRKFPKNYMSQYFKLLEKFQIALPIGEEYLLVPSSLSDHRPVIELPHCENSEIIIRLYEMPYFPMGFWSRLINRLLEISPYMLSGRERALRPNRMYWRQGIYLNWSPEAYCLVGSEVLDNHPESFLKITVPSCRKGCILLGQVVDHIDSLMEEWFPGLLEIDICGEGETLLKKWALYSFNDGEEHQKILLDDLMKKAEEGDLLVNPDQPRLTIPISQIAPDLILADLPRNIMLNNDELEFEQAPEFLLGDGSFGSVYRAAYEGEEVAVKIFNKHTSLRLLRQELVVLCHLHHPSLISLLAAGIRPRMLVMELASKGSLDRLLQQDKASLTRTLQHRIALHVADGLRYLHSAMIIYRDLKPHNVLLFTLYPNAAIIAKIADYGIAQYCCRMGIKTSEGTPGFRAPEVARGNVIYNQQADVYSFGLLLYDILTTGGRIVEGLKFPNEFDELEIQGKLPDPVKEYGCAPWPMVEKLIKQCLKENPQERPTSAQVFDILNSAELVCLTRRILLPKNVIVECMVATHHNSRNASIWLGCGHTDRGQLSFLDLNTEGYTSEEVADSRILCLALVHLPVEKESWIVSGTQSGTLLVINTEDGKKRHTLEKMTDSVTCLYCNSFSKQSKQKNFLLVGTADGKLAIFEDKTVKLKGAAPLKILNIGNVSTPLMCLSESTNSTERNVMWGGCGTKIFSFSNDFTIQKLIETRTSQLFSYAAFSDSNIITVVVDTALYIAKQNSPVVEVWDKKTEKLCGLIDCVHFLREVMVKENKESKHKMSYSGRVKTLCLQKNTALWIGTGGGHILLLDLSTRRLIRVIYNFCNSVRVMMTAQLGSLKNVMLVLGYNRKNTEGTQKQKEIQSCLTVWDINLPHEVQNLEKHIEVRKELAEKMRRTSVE
# Summary of the method: as §1
# T1 sequence (Q5S007 970-2527 G2019S limits assumed): as the sequence (Q5S007 970-2527 limits assumed) above, with G1050S counted along it
Structure (SMILES),IC50 [1],IC50 [2],IC50 [3],IC50 [4],IC50 [5],IC50 [6]
"NC(=O)c1nn(-c2c(Cl)ccc(F)c2Cl)cc1Nc1ccc(C(=O)N2CCOCC2)cc1 [compound 416, 1-(2,6-dichloro-3-fluorophenyl)-4-((4-(morpholine-4-carbonyl)phenyl)amino)-1H-pyrazole-3-carboxamide]",100 to 1000 nM,< 10 nM,10 to 100 nM,100 to 1000 nM,100 to 1000 nM,100 to 1000 nM
"N#Cc1cccc(F)c1-n1cc(Nc2ccc(C(=O)N3CCOCC3)cc2)c(C(N)=O)n1 [compound 454, 1-(2-cyano-6-fluorophenyl)-4-((4-(morpholine-4-carbonyl)phenyl)amino)-1H-pyrazole-3-carboxamide]",100 to 1000 nM,< 10 nM,10 to 100 nM,100 to 1000 nM,100 to 1000 nM,100 to 1000 nM
"Cn1cnnc1-c1ccc(Nc2cn(-c3c(Cl)cccc3Cl)nc2C(N)=O)cc1 [compound 88, 1-(2,6-dichlorophenyl)-4-((4-(4-methyl-4H-1,2,4-triazol-3-yl)phenyl)amino)-1H-pyrazole-3-carboxamide]",100 to 1000 nM,< 10 nM,10 to 100 nM,100 to 1000 nM,100 to 1000 nM,100 to 1000 nM
"NC(=O)c1nn(-c2c(Cl)cccc2Cl)cc1Nc1ccc(-c2nncn2C2CCCC2)cc1 [compound 202, 4-((4-(4-cyclopentyl-4H-1,2,4-triazol-3-yl)phenyl)amino)-1-(2,6-dichlorophenyl)-1H-pyrazole-3-carboxamide]",100 to 1000 nM,10 to 100 nM,100 to 1000 nM,100 to 1000 nM,100 to 1000 nM,100 to 1000 nM
"N#Cc1cccc(F)c1-n1cc(Nc2ccc(C(=O)N3CCS(=O)(=O)CC3)cc2)c(C(N)=O)n1 [compound 452, 1-(2-cyano-6-fluorophenyl)-4-((4-(1,1-dioxidothiomorpholine-4-carbonyl)phenyl)amino)-1H-pyrazole-3-carboxamide]",100 to 1000 nM,< 10 nM,< 10 nM,100 to 1000 nM,100 to 1000 nM,100 to 1000 nM
"NC(=O)c1nn(-c2c(F)cccc2Cl)cc1Nc1ccc(-c2nnc3n2CCCC3)cc1 [compound 58, 1-(2-chloro-6-fluorophenyl)-4-((4-(5,6,7,8-tetrahydro-[1,2,4]triazolo[4,3-a]pyridin-3-yl)phenyl)amino)-1H-pyrazole-3-carboxamide]",10 to 100 nM,< 10 nM,10 to 100 nM,100 to 1000 nM,100 to 1000 nM,10 to 100 nM
"CN(C)[C@H]1CCN(C(=O)c2ccc(Nc3nn(-c4c(Cl)cccc4Cl)nc3C(N)=O)cc2)C1 [compound 105, 2-(2,6-Dichloro-phenyl)-5-[4-((S)-3-dimethylamino-pyrrolidine-1-carbonyl)-phenylamino]-2H-[1,2,3]triazole-4-carboxylic acid amide]",–,< 10 nM,< 10 nM,100 to 1000 nM,100 to 1000 nM,–

# Continued, values first:
IC50 [1],IC50 [2],IC50 [3],IC50 [4],IC50 [5],IC50 [6],Structure (SMILES)
–,10 to 100 nM,10 to 100 nM,100 to 1000 nM,100 to 1000 nM,–,"NC(=O)c1nn(-c2c(Cl)cccc2Cl)nc1Nc1ccc(-c2nnn[nH]2)cc1 [compound 103, 2-(2,6-Dichloro-phenyl)-5-[4-(1H-tetrazol-5-yl)-phenylamino]-2H-[1,2,3]triazole-4-carboxylic acid amide]"
100 to 1000 nM,< 10 nM,10 to 100 nM,100 to 1000 nM,10 to 100 nM,100 to 1000 nM,"NC(=O)c1nn(-c2c(F)cccc2Cl)cc1Nc1ccc(C(=O)N2CCOCC2)cc1 [compound 22, 1-(2-chloro-6-fluorophenyl)-4-((4-(morpholine-4-carbonyl)phenyl)amino)-1H-pyrazole-3-carboxamide]"
–,< 10 nM,< 10 nM,100 to 1000 nM,100 to 1000 nM,–,"NC(=O)c1nn(-c2c(Cl)cccc2Cl)nc1Nc1ccc(C(=O)N2CCOCC2)cc1 [compound 101, 2-(2,6-Dichloro-phenyl)-5-[4-(morpholine-4-carbonyl)-phenylamino]-2H-[1,2,3]triazole-4-carboxylic acid amide]"
100 to 1000 nM,10 to 100 nM,< 10 nM,100 to 1000 nM,100 to 1000 nM,100 to 1000 nM,"CCn1ccnc1-c1ccc(Nc2cn(-c3c(Cl)cccc3Cl)nc2C(N)=O)cc1 [compound 229, 1-(2,6-dichlorophenyl)-4-((4-(1-ethyl-1H-imidazol-2-yl)phenyl)amino)-1H-pyrazole-3-carboxamide]"
–,< 10 nM,10 to 100 nM,100 to 1000 nM,100 to 1000 nM,–,"NC(=O)c1nn(-c2c(Cl)cccc2Cl)nc1Nc1ccc(C(=O)N2CC[C@@H](F)C2)cc1 [compound 106, 2-(2,6-Dichloro-phenyl)-5-[4-((R)-3-fluoro-pyrrolidine-1-carbonyl)-phenylamino]-2H-[1,2,3]triazole-4-carboxylic acid amide]"
100 to 1000 nM,< 10 nM,10 to 100 nM,100 to 1000 nM,100 to 1000 nM,100 to 1000 nM,"NC(=O)c1nn(-c2c(Cl)cccc2Cl)cc1Nc1ccc(-c2nncn2CC(F)F)cc1 [compound 212, 1-(2,6-dichlorophenyl)-4-((4-(4-(2,2-difluoroethyl)-4H-1,2,4-triazol-3-yl)phenyl)amino)-1H-pyrazole-3-carboxamide]"
100 to 1000 nM,< 10 nM,10 to 100 nM,100 to 1000 nM,10 to 100 nM,100 to 1000 nM,"NC(=O)c1nn(-c2c(F)cccc2Cl)cc1Nc1ccc(C(=O)N2CCCC2)cc1 [compound 227, 1-(2-chloro-6-fluorophenyl)-4-((4-(pyrrolidine-1-carbonyl)phenyl)amino)-1H-pyrazole-3-carboxamide]"
–,< 10 nM,< 10 nM,100 to 1000 nM,100 to 1000 nM,–,"CN1CCN(C(=O)c2ccc(Nc3nn(-c4c(Cl)cccc4Cl)nc3C(N)=O)cc2)CC1 [compound 102, 2-(2,6-Dichloro-phenyl)-5-[4-(4-methyl-piperazine-1-carbonyl)-phenylamino]-2H-[1,2,3]triazole-4-carboxylic acid amide]"
